# Test results from patent US20230355599A1, “BIOMARKERS FOR CBL, AND COMPOSITIONS AND METHODS FOR THEIR USE” (NURIX THERAPEUTICS, INC., priority 2022, published 2023).
# What was measured:
# phosphorylated HS1 = experiment: Phosphorylated HS1 in circulating CD8+ T cells of patients, Phase 1 trial (flow cytometry); type: in vivo, human
# Method: Pharmacodynamic analysis of the proximal biomarker, phosphorylated HS1 is assessed in circulating CD8^+ T cells from patients that are being administered doses ranging from 5 to 50 mg of Compound 23 once daily and is being used to assess target engagement of Compound 23 as part of the dose/exposure-response profile. Whole blood is collected longitudinally and added into two types of TruCulture (Myriad) tubes. One tube contains media, and the second tube contains anti-CD3 and anti-CD28, which are subsequently crosslinked to induce cellular stimulation for pharmacodynamic analysis. Phosphorylated HS1 is assessed by flow cytometry pre and post dose on Cycle 1 Day 1 (C1D1) and Cycle 2 Day 1 (C2D1) to characterize single/multiple dose PD profiles.
# % Maximal phosphorylated signal and % AUC are two commonly used parameters to assess the pharmacodynamic effects of drugs.
# % Maximal phosphorylated signal refers to the maximum amount of a specific protein that becomes phosphorylated (i.e., modified by the addition of a phosphate group) in response to a drug or other stimulus. This parameter is often used to measure the activation of signaling pathways that are important for various cellular processes, including cell growth and differentiation, immune response, and metabolism.
# % AUC, on the other hand, refers to the area under the curve (AUC) over time, expressed as a percentage of the maximum possible AUC. In summary, both % maximal phosphorylated signal and % AUC are useful parameters to assess the pharmacodynamic effects of drugs. % maximal phosphorylated signal is a measure of the activation of signaling pathways, while % AUC reflects the duration of the effect on PD signals. Both parameters can be used to evaluate the potency and duration of a drug's pharmacodynamic effects.
# A20 lymphoma tumor model = experiment: A20 lymphoma tumor model, anti-tumor activity; type: in vivo, mouse; details: dosed at 10, 30 or 60 mg/kg
# Source text: An elevated percentage of pHS1+CD8+ T cells correlated with potent anti-tumor effects in mouse syngeneic tumor models and defined a biomarker therapeutic range. At this therapeutic range, approximately 50% proximal biomarker pHS1 correlates with the efficacious range.
# pY525/pY526/pY348-SYK = experiment: Phosphoprotein screen in human whole blood with CBL inhibitor at 10 uM: SYK; type: cell-based; details: 1 hr 37° C., human whole blood 8 donors, anti-CD3/CD28 + crosslinker 60 minutes
# Method: To identify proximal biomarkers of CBL-B inhibition in immune cells, a panel of phosphorylated proteins were screened in human whole blood incubated with CBL-B inhibitor and concomitant anti-CD3 and anti-CD28 antibodies. The effect of CBL-B inhibition was assessed across multiple cellular signaling networks.
# Human heparinized whole blood from 8 donors was received after an overnight shipment at 4° C. The blood was plated, treated with CBL inhibitor at 10 uM and incubated at 37° C. for 60 minutes. After incubation, the cells were stimulated with anti-CD3/CD28 followed by a cross-linking antibody (30 μg of goat anti-mouse IgG (H+L) antibody (Invitrogen)). After 60 minutes, the cells were fixed, and stained using surface markers for T cells (CD3^+CD4^+& CD3^+CD8^+) and analyzed by flow cytometry for target phosphorylation of the following markers: pY180/pY511-ITK, pY397-HS1, pY759-PLCg2, pY783-PLCg1, pY525/pY526/pY348-SYK & pY319-Zap70.
# Fold change of each biomarker was calculated with the following example equation: […]
# Whole blood from eight human donors was collected in sodium heparin anti-coagulant treated with 10 μM of Compound 23 for 1 hr at 37° C. […] Fold change of % phosphorylation normalized to DMSO was quantitated in T cells (CD8^+) using flow cytometry is provided in FIGS. 6A-6B.
# [1] = 5 mg once daily, n=1, cycle 1, day 1
# [2] = 15 mg once daily, n=12, cycle 1, day 1
# [3] = 25 mg once daily, n=7, cycle 1, day 1
# [4] = 50 mg once daily, n=2, cycle 1, day 1
smiles,measurement,setting,value
C[C@H]1CCCN(Cc2cc3c(c(C(F)(F)F)c2)CN(c2cccc([C@]4(c5nncn5C)C[C@@H](C)C4)c2)C3=O)C1 [Compound 23],% of phosphorylated HS1 expressing CD8+ T cells (maximal),phosphorylated HS1; [1],35%
same,phosphorylated HS1 AUC,phosphorylated HS1; [1],578
same,% of phosphorylated HS1 expressing CD8+ T cells (maximal),phosphorylated HS1; [2],46%
same,phosphorylated HS1 AUC,phosphorylated HS1; [2],787
same,% of phosphorylated HS1 expressing CD8+ T cells (maximal),phosphorylated HS1; [3],53%
same,phosphorylated HS1 AUC,phosphorylated HS1; [3],876
same,% of phosphorylated HS1 expressing CD8+ T cells (maximal),phosphorylated HS1; [4],52%
same,phosphorylated HS1 AUC,phosphorylated HS1; [4],1055
same,trend of AUC % pHS1 with PK,"phosphorylated HS1; Pearson correlation with PK parameters (AUC and CMAX), statistically significant slope p=0.02",positive trend
same,median survival time compared to the vehicle control,A20 lymphoma tumor model,prolonged median survival time
same,tumor size compared to the vehicle control,A20 lymphoma tumor model,significantly smaller tumors
same,increased phosphorylation of SYK compared to DMSO control,pY525/pY526/pY348-SYK,2-3 fold
